ChEMBL document CHEMBL3885881, “DrugMatrix”

Species: Rattus norvegicus
Assay: DrugMatrix - Regimen: Daily Repeat
Format: toxicity, organism-based, Sprague-Dawley
Design: regimen Daily Repeat, gender Male, age 6-8 weeks
Conditions: in vivo, po, route oral GAVAGE, […]; for ABSOLUTE BASOPHIL / ABSOLUTE EOSINOPHIL / ABSOLUTE LYMPHOCYTE / ABSOLUTE MONOCYTE / BASOPHIL / EOSINOPHIL / ERYTHROCYTE COUNT / HEMATOCRIT / HEMOGLOBIN / LEUKOCYTE COUNT / LYMPHOCYTE / MEAN CORPUSCULAR HEMOGLOBIN / MEAN CORPUSCULAR HEMOGLOBIN CONCENTRATION / MEAN CORPUSCULAR VOLUME / MONOCYTE / NEUTROPHIL / PLATELET COUNT: tissue Blood
[1] = 0 mg/kg, 72 h, dose level Control, time 3 day
[2] = 0 mg/kg, 72 h, tissue Plasma, dose level Control, time 3 day
[3] = 0 mg/kg, 120 h, dose level Control, time 5 day
[4] = 0 mg/kg, 120 h, tissue Plasma, dose level Control, time 5 day
[5] = 0 mg/kg, dose level Control, time 14 day
[6] = 0 mg/kg, tissue Plasma, dose level Control, time 14 day
[7] = 40 mg/kg, 72 h, dose level Low, time 3 day
[8] = 40 mg/kg, 72 h, tissue Plasma, dose level Low, time 3 day

## C=CCN [ALLYLAMINE]
[1]
  ABSOLUTE BASOPHIL: 50 cells/µL
  ABSOLUTE EOSINOPHIL: 43.3 cells/µL
  ABSOLUTE LYMPHOCYTE: 9670 cells/µL
  ABSOLUTE MONOCYTE: 210 cells/µL
  BASOPHIL: 0.4%
  EOSINOPHIL: 0.37%
  ERYTHROCYTE COUNT: 6.82 x10E6/uL
  HEMATOCRIT: 46.77%
  HEMOGLOBIN: 14.53 G/DL
  LEUKOCYTE COUNT: 11.77 x10E3/uL
  LYMPHOCYTE: 82.1%
  MEAN CORPUSCULAR HEMOGLOBIN: 21.33 pg
  MEAN CORPUSCULAR HEMOGLOBIN CONCENTRATION: 31.13 G/DL
  MEAN CORPUSCULAR VOLUME: 68.57 fL
  MONOCYTE: 1.8%
  NEUTROPHIL: 14.83%
  PLATELET COUNT: 1303.33 x10E3/uL
[2]
  ALANINE AMINOTRANSFERASE: 46.67 u/L
  ALBUMIN: 4.17 G/DL
  ALKALINE PHOSPHATASE: 530 u/L
  ASPARTATE AMINOTRANSFERASE: 81.33 u/L
  BLOOD UREA NITROGEN: 17.67 mg/dL
  CARBON DIOXIDE: 41.67 mmol/L
  CHLORIDE: 102 MEQ/L
  CHOLESTEROL: 70.33 mg/dL
  CREATINE PHOSPHOKINASE: 372.67 u/L
  CREATININE: 0.5 mg/dL
  GLUCOSE: 184 mg/dL
  LIPASE: 13.33 u/L
  PHOSPHORUS: 10.2 mg/dL
  POTASSIUM: 6.13 MEQ/L
  SODIUM: 145 MEQ/L
  TOTAL BILIRUBIN: 0.43 mg/dL
  TOTAL PROTEIN: 6.7 G/DL
  URIC ACID: 0.83 mg/dL
[3]
  ABSOLUTE BASOPHIL: 33.3 cells/µL
  ABSOLUTE EOSINOPHIL: 56.7 cells/µL
  ABSOLUTE LYMPHOCYTE: 9220 cells/µL
  ABSOLUTE MONOCYTE: 230 cells/µL
  BASOPHIL: 0.3%
  EOSINOPHIL: 0.5%
  ERYTHROCYTE COUNT: 6.62 x10E6/uL
  HEMATOCRIT: 46.43%
  HEMOGLOBIN: 14.3 G/DL
  LEUKOCYTE COUNT: 10.96 x10E3/uL
  LYMPHOCYTE: 83.83%
  MEAN CORPUSCULAR HEMOGLOBIN: 21.57 pg
  MEAN CORPUSCULAR HEMOGLOBIN CONCENTRATION: 30.77 G/DL
  MEAN CORPUSCULAR VOLUME: 70.13 fL
  MONOCYTE: 2.1%
  NEUTROPHIL: 12.53%
  PLATELET COUNT: 1056.67 x10E3/uL
[4]
  ALANINE AMINOTRANSFERASE: 41.33 u/L
  ALBUMIN: 4.07 G/DL
  ALKALINE PHOSPHATASE: 603.33 u/L
  ASPARTATE AMINOTRANSFERASE: 80 u/L
  BLOOD UREA NITROGEN: 14.67 mg/dL
  CARBON DIOXIDE: 43 mmol/L
  CHLORIDE: 104 MEQ/L
  CHOLESTEROL: 88.33 mg/dL
  CREATINE PHOSPHOKINASE: 391.67 u/L
  CREATININE: 0.47 mg/dL
  GLUCOSE: 156 mg/dL
  LIPASE: 10.67 u/L
  PHOSPHORUS: 9.03 mg/dL
  POTASSIUM: 6.1 MEQ/L
  SODIUM: 145.67 MEQ/L
  TOTAL BILIRUBIN: 0.37 mg/dL
  TOTAL PROTEIN: 6.53 G/DL
  URIC ACID: 0.5 mg/dL
[5]
  ABSOLUTE BASOPHIL: 73.3 cells/µL
  ABSOLUTE EOSINOPHIL: 60 cells/µL
  ABSOLUTE LYMPHOCYTE: 12200 cells/µL
  ABSOLUTE MONOCYTE: 250 cells/µL
  BASOPHIL: 0.5%
  EOSINOPHIL: 0.37%
  ERYTHROCYTE COUNT: 7.33 x10E6/uL
  HEMATOCRIT: 44.3%
  HEMOGLOBIN: 14.77 G/DL
  LEUKOCYTE COUNT: 14.86 x10E3/uL
  LYMPHOCYTE: 81.87%
  MEAN CORPUSCULAR HEMOGLOBIN: 20.2 pg
  MEAN CORPUSCULAR HEMOGLOBIN CONCENTRATION: 33.33 G/DL
  MEAN CORPUSCULAR VOLUME: 60.57 fL
  MONOCYTE: 1.63%
  NEUTROPHIL: 14.93%
  PLATELET COUNT: 1101.67 x10E3/uL
[6]
  ALANINE AMINOTRANSFERASE: 31.67 u/L
  ALBUMIN: 3.83 G/DL
  ALKALINE PHOSPHATASE: 430.67 u/L
  ASPARTATE AMINOTRANSFERASE: 87 u/L
  BLOOD UREA NITROGEN: 14.33 mg/dL
  CARBON DIOXIDE: 39 mmol/L
  CHLORIDE: 104 MEQ/L
  CHOLESTEROL: 66 mg/dL
  CREATINE PHOSPHOKINASE: 441.67 u/L
  CREATININE: 0.7 mg/dL
  GLUCOSE: 125.67 mg/dL
  LACTATE DEHYDROGENASE: 397.67 u/L
  LIPASE: 12.33 u/L
  PHOSPHORUS: 9.87 mg/dL
  POTASSIUM: 5.93 MEQ/L
  SODIUM: 145 MEQ/L
  TOTAL BILIRUBIN: 0.37 mg/dL
  TOTAL PROTEIN: 6.27 G/DL
  URIC ACID: 0.67 mg/dL
[7]
  ABSOLUTE BASOPHIL: 40 cells/µL
  ABSOLUTE EOSINOPHIL: 60 cells/µL
  ABSOLUTE LYMPHOCYTE: 9180 cells/µL
  ABSOLUTE MONOCYTE: 300 cells/µL
  BASOPHIL: 0.33%
  EOSINOPHIL: 0.53%
  ERYTHROCYTE COUNT: 7.09 x10E6/uL
  HEMATOCRIT: 45.93%
  HEMOGLOBIN: 14.27 G/DL
  LEUKOCYTE COUNT: 11.66 x10E3/uL
  LYMPHOCYTE: 78.7%
  MEAN CORPUSCULAR HEMOGLOBIN: 20.07 pg
  MEAN CORPUSCULAR HEMOGLOBIN CONCENTRATION: 31 G/DL
  MEAN CORPUSCULAR VOLUME: 64.77 fL
  MONOCYTE: 2.47%
  NEUTROPHIL: 17.23%
  PLATELET COUNT: 1151.67 x10E3/uL
[8]
  ALANINE AMINOTRANSFERASE: 38 u/L
  ALBUMIN: 3.8 G/DL
  ALKALINE PHOSPHATASE: 546.67 u/L
  ASPARTATE AMINOTRANSFERASE: 81.67 u/L
  BLOOD UREA NITROGEN: 16.67 mg/dL
  CARBON DIOXIDE: 38.67 mmol/L
  CHLORIDE: 105.67 MEQ/L
  CHOLESTEROL: 70.67 mg/dL
  CREATINE PHOSPHOKINASE: 634.67 u/L
  CREATININE: 0.6 mg/dL
  GLUCOSE: 204.33 mg/dL
  LIPASE: 283.33 u/L
  PHOSPHORUS: 9.93 mg/dL
  POTASSIUM: 6.43 MEQ/L
  SODIUM: 146 MEQ/L
